Measurements taken from patent publication US20200368312A1 (priority 2017, published 2020).
Converted amounts (≈) assume the structure as drawn. Where two headings read alike, the source gives them in different places.

Key:
Type in all cases: cell-based
E. lenta = experiment: Broth microdilution MIC, E. lenta (Table 7); details: E. lenta MMX 1287 ATCC 43055
S. lugdenensis (CoNS) = experiment: Broth microdilution MIC, S. lugdenensis (CoNS) (Table 7); details: S. lugdenensis (CoNS) MMX 8724
S. epidermidis (CoNS) = experiment: Broth microdilution MIC, S. epidermidis (CoNS) (Table 7)
Streptococci = experiment: Broth microdilution MIC, Streptococci (Example 11, Table 7)
S. haemolyticus (CoNS) = experiment: Broth microdilution MIC, S. haemolyticus (CoNS) (Table 7); details: S. haemolyticus (CoNS) MMX 529 ATCC 29970
S. hominis (CoNS) = experiment: Broth microdilution MIC, S. hominis (CoNS) (Table 7); details: S. hominis (CoNS) MMX 667 ATCC 27844
Staphylococcus aureus = experiment: microbe, parasite or virus in culture; details: for MIC: Staphylococcus aureus
P. micros = experiment: Broth microdilution MIC, P. micros (Table 7); details: P. micros MMX 3546
C. perfringens = C. perfringens MMX 8351 ATCC 13124
P. anaerobius = experiment: Broth microdilution MIC, P. anaerobius (Table 7); details: P. anaerobius MMX 1208 ATCC 27337
Enterococci = test system: Enterococci
P. acnes = experiment: Broth microdilution MIC, P. acnes (Table 7)
Clostridium difficile = experiment: Broth microdilution MIC, C. difficile, anaerobic, supplemented Brucella Broth (Example 11, Table 7)

CN(C)c1cc(NC(=O)CNC(C)(C)C)c(O)c2c1C[C@H]1C[C@H]3[C@H](N(C)C)C(O)=C(C(N)=O)C(=O)[C@@]3(O)C(O)=C1C2=O [Tigecycline]
MIC (E. lenta): 0.25 µg/mL (≈ 0.427 µM) | MIC (S. lugdenensis (CoNS)): 0.06 µg/mL (≈ 0.102 µM) | MIC (S. epidermidis (CoNS); S. epidermidis (CoNS) MMX 762, MRSE): 0.06 µg/mL (≈ 0.102 µM) | MIC (S. epidermidis (CoNS); S. epidermidis (CoNS) MMX 5145, MRSE): 0.12 µg/mL (≈ 0.205 µM) | MIC (Streptococci; S. agalactiae MMX 4088): 0.03 µg/mL (≈ 0.0512 µM) | MIC (Streptococci; S. agalactiae MMX 4115, erm^R): 0.03 µg/mL (≈ 0.0512 µM) | MIC (Streptococci; S. anginosus (AGS) MMX 1201 ATCC 33397): 0.008 µg/mL (≈ 0.0137 µM) | MIC (Streptococci; S. constellatus (AGS) MMX 5677): 0.03 µg/mL (≈ 0.0512 µM) | MIC (Streptococci; S. dysgalactiae MMX 5121): 0.06 µg/mL (≈ 0.102 µM) | MIC (Streptococci; S. dysgalactiae MMX 5123): 0.015 µg/mL (≈ 0.0256 µM) | MIC (Streptococci; S. dysgalactiae MMX 5124): 0.12 µg/mL (≈ 0.205 µM) | MIC (Streptococci; S. mitis (MGS) MMX 5798): 0.03 µg/mL (≈ 0.0512 µM) | MIC (Streptococci; S. oralis (MGS) MMX 5821): 0.06 µg/mL (≈ 0.102 µM) | MIC (Streptococci; S. pneumoniae MMX 432, PRSP): 0.03 µg/mL (≈ 0.0512 µM) | MIC (Streptococci; S. pneumoniae MMX 747): 0.03 µg/mL (≈ 0.0512 µM) | MIC (Streptococci; S. pneumoniae MMX 1195 ATCC 49619, PISP): 0.06 µg/mL (≈ 0.102 µM) | MIC (Streptococci; S. pyogenes MMX 404 ATCC 19615): 0.015 µg/mL (≈ 0.0256 µM) | MIC (Streptococci; S. pyogenes MMX 946, ermR): 0.015 µg/mL (≈ 0.0256 µM) | MIC (Streptococci; S. pyogenes MMX 8778): 0.03 µg/mL (≈ 0.0512 µM) | MIC (S. haemolyticus (CoNS)): 0.06 µg/mL (≈ 0.102 µM) | MIC (S. hominis (CoNS)): 0.12 µg/mL (≈ 0.205 µM) | RV40 activity as compared to Comparator (Staphylococcus aureus; MRSA strains (Table 5), […]): 16 × | MIC (Staphylococcus aureus; ATCC 29213 / MSSA, S. aureus MMX 100 ATCC 29213, MSSA (quality control)): 0.25 µg/mL (≈ 0.427 µM) | MIC (Staphylococcus aureus; ATCC 33591 / MRSA, S. aureus MMX 5717 ATCC 33591, MRSA): 0.25 µg/mL (≈ 0.427 µM) | MIC (Staphylococcus aureus; ATCC BAA-1556 / MRSA, S. aureus MMX 4675 ATCC BAA-1556, MRSA): 0.12 µg/mL (≈ 0.205 µM) | MIC (Staphylococcus aureus; ATCC BAA-1756 / MRSA, S. aureus MMX 2011 ATCC BAA-1756, MRSA): 0.12 µg/mL (≈ 0.205 µM) | MIC (Staphylococcus aureus; MRSA, S. aureus MMX 2010, MRSA): 0.09 µg/mL (≈ 0.154 µM) | MIC (Staphylococcus aureus; MRSA, S. aureus MMX 3982, MRSA): 0.185 µg/mL (≈ 0.316 µM) | MIC (Staphylococcus aureus; MRSA, S. aureus MMX 5985, MRSA): 0.185 µg/mL (≈ 0.316 µM) | MIC (Staphylococcus aureus; MRSA, S. aureus MMX 5999, MRSA): 0.12 µg/mL (≈ 0.205 µM) | MIC (Staphylococcus aureus; MRSA, S. aureus MMX 7899, MRSA): 0.12 µg/mL (≈ 0.205 µM) | MIC (Staphylococcus aureus; MRSA, S. aureus MMX 7900, MRSA): 0.185 µg/mL (≈ 0.316 µM) | MIC (Staphylococcus aureus; MRSA, S. aureus MMX 7901, MRSA): 0.12 µg/mL (≈ 0.205 µM) | MIC (Staphylococcus aureus; MRSA, S. aureus MMX 7902, MRSA): 0.12 µg/mL (≈ 0.205 µM) | MIC (Staphylococcus aureus; MRSA, S. aureus MMX 7903, MRSA): 0.12 µg/mL (≈ 0.205 µM) | MIC (Staphylococcus aureus; MSSA, S. aureus MMX 2490, MSSA): 0.12 µg/mL (≈ 0.205 µM) | MIC (Staphylococcus aureus; MSSA, S. aureus MMX 7907, MSSA): 0.12 µg/mL (≈ 0.205 µM) | MIC (Staphylococcus aureus; MSSA, S. aureus MMX 7908, MSSA): 0.12 µg/mL (≈ 0.205 µM) | MIC (Staphylococcus aureus; S. aureus MMX 4665, hVISA): 0.25 µg/mL (≈ 0.427 µM) | MIC (Staphylococcus aureus; S. aureus MMX 5989, Mu3, hVISA): 0.75 µg/mL (≈ 1.28 µM) | MIC (Staphylococcus aureus; VISA, S. aureus MMX 1723, Mu50): 0.5 µg/mL (≈ 0.854 µM) | MIC (Staphylococcus aureus; VISA, S. aureus MMX 2124, VISA, DaptoNS): 0.045 µg/mL (≈ 0.0768 µM) | MIC (Staphylococcus aureus; VISA, S. aureus MMX 4658, VISA): 0.12 µg/mL (≈ 0.205 µM) | MIC (Staphylococcus aureus; VISA, S. aureus MMX 4660, VISA): 0.09 µg/mL (≈ 0.154 µM) | MIC (P. micros): 0.015 µg/mL (≈ 0.0256 µM) | MIC (C. perfringens): 0.12 µg/mL (≈ 0.205 µM) | MIC (P. anaerobius): 0.03 µg/mL (≈ 0.0512 µM) | MIC (Enterococci; E. faecalis MMX 101 ATCC 29212, VSE): 0.06 µg/mL (≈ 0.102 µM) | MIC (Enterococci; E. faecalis MMX 1086, VanA VRE): 0.12 µg/mL (≈ 0.205 µM) | MIC (Enterococci; E. faecalis MMX 4176): 0.12 µg/mL (≈ 0.205 µM) | MIC (Enterococci; E. faecium MMX 173, VanB VRE): 0.06 µg/mL (≈ 0.102 µM) | MIC (Enterococci; E. faecium MMX 851, VanA VRE): 0.06 µg/mL (≈ 0.102 µM) | MIC (Enterococci; E. faecium MMX 4204): 0.06 µg/mL (≈ 0.102 µM) | MIC (P. acnes; P. acnes MMX 7942 ATCC 6919): 0.03 µg/mL (≈ 0.0512 µM) | MIC (P. acnes; P. acnes MMX 7946 ATCC 11827): 0.03 µg/mL (≈ 0.0512 µM) | MIC (Clostridium difficile; C. difficile MMX 4381 ATCC 700057, toxinAB-negative): 0.18 µg/mL (≈ 0.307 µM) | MIC (Clostridium difficile; C. difficile MMX 4994 ATCC BAA-1805, ribotype 027): 0.03 µg/mL (≈ 0.0512 µM) | MIC (Clostridium difficile; C. difficile MMX 5668 ATCC BAA-1870, NAP1/027): 0.03 µg/mL (≈ 0.0512 µM)
